Reference: PubChem BioAssay (NCI)
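Method: 48-hour compound exposure of cells in 96-well plates, five concentrations, linear interpolation of endpoints. GI50 is the concentration that inhibits growth by half. TGI denotes the concentration required for complete inhibition of growth.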

Key:
Assay in all cases: growth of human tumour cells (NCI), 48 h
NCI-H23 lung = tested on: NCI-H23 lung
NCI-H460 lung = tested on: NCI-H460 lung
NCI-H522 lung = tested on: NCI-H522 lung
NCI/ADR-RES ovarian = tested on: NCI/ADR-RES ovarian
OVCAR-3 ovarian = tested on: OVCAR-3 ovarian
OVCAR-4 ovarian = tested on: OVCAR-4 ovarian
OVCAR-5 ovarian = tested on: OVCAR-5 ovarian
OVCAR-8 ovarian = tested on: OVCAR-8 ovarian
PC-3 prostate = tested on: PC-3 prostate
RPMI-8226 leukemia = tested on: RPMI-8226 leukemia
RXF 393 renal = tested on: RXF 393 renal
SF-268 CNS = tested on: SF-268 CNS
SF-295 CNS = tested on: SF-295 CNS
SF-539 CNS = tested on: SF-539 CNS
SK-MEL-2 melanoma = tested on: SK-MEL-2 melanoma
SK-MEL-28 melanoma = tested on: SK-MEL-28 melanoma
SK-MEL-5 melanoma = tested on: SK-MEL-5 melanoma
SK-OV-3 ovarian = tested on: SK-OV-3 ovarian
SN12C renal = tested on: SN12C renal
SNB-19 CNS = tested on: SNB-19 CNS
SNB-75 CNS = tested on: SNB-75 CNS
SR leukemia = tested on: SR leukemia
SW-620 colon = tested on: SW-620 colon
T-47D breast = tested on: T-47D breast
TK-10 renal = tested on: TK-10 renal
U251 CNS = tested on: U251 CNS
UACC-257 melanoma = tested on: UACC-257 melanoma
UACC-62 melanoma = tested on: UACC-62 melanoma
UO-31 renal = tested on: UO-31 renal

O=S(=O)(NC1CC2CCC1C2)c1ccc2c(c1)C(=NO)c1cc(S(=O)(=O)NC3CC4CCC3C4)ccc1-2 (stereo unspecified)
GI50 (NCI-H23 lung): 0.0394 µM | TGI (NCI-H23 lung): 0.182 µM | GI50 (NCI-H460 lung): 0.437 µM | TGI (NCI-H460 lung): 14.2 µM | GI50 (NCI-H522 lung): 0.16 µM | TGI (NCI-H522 lung): 1.02 µM | GI50 (NCI/ADR-RES ovarian): 7 µM | TGI (NCI/ADR-RES ovarian): > 100 µM | GI50 (OVCAR-3 ovarian): 0.598 µM | TGI (OVCAR-3 ovarian): > 100 µM | GI50 (OVCAR-4 ovarian): 0.677 µM | TGI (OVCAR-4 ovarian): 3.37 µM | GI50 (OVCAR-5 ovarian): 0.453 µM | TGI (OVCAR-5 ovarian): 40.5 µM | GI50 (OVCAR-8 ovarian): 0.139 µM | TGI (OVCAR-8 ovarian): 2.29 µM | GI50 (PC-3 prostate): 1.86 µM | TGI (PC-3 prostate): 18.3 µM | GI50 (RPMI-8226 leukemia): 0.238 µM | TGI (RPMI-8226 leukemia): > 100 µM | GI50 (RXF 393 renal): 0.292 µM | TGI (RXF 393 renal): 30.2 µM | GI50 (SF-268 CNS): 2.38 µM | TGI (SF-268 CNS): 99.5 µM | GI50 (SF-295 CNS): 2.31 µM | TGI (SF-295 CNS): 8.91 µM | GI50 (SF-539 CNS): 0.182 µM | TGI (SF-539 CNS): 0.396 µM | GI50 (SK-MEL-2 melanoma): 66.7 µM | TGI (SK-MEL-2 melanoma): > 100 µM | GI50 (SK-MEL-28 melanoma): 60.2 µM | TGI (SK-MEL-28 melanoma): > 100 µM | GI50 (SK-MEL-5 melanoma): > 100 µM | TGI (SK-MEL-5 melanoma): > 100 µM | GI50 (SK-OV-3 ovarian): 23.2 µM | TGI (SK-OV-3 ovarian): > 86.7 µM | GI50 (SN12C renal): 0.883 µM | TGI (SN12C renal): 25.8 µM | GI50 (SNB-19 CNS): 28.9 µM | TGI (SNB-19 CNS): > 100 µM | TGI (SNB-75 CNS): > 100 µM | GI50 (SR leukemia): 0.0179 µM | TGI (SR leukemia): 0.0563 µM | GI50 (SW-620 colon): 0.527 µM | TGI (SW-620 colon): 3.87 µM | GI50 (T-47D breast): 1.27 µM | TGI (T-47D breast): 5.57 µM | GI50 (TK-10 renal): 3.1 µM | GI50 (U251 CNS): 0.371 µM | TGI (U251 CNS): 3.67 µM | GI50 (UACC-257 melanoma): > 100 µM | TGI (UACC-257 melanoma): > 100 µM | GI50 (UACC-62 melanoma): 36 µM | TGI (UACC-62 melanoma): > 100 µM | GI50 (UO-31 renal): 0.0186 µM | TGI (UO-31 renal): 0.0376 µM
